According to US6403601B1, “N-(2-phenyl-4-piperidinybutyl)-5,6,7,8-tetrahydro-1-naphthalenecarboxamides and their use as neurokinin 1 (NK1) and/or neurokinin 2 (NK2) receptor antagonists” (Astrazeneca AB, priority 1998, dated 2002):

Legend:
NK1 = target: T1, NK1 (Oryctolagus cuniculus, UniProt G1SEI7); experiment: Rabbit Pulmonary Artery: NK1 In Vitro Functional Assay (Test C); type: cell-based; details: agonist ASMSP
T1 construct: The pulmonary arteries are isolated from the rest of the tissues and cut in half to serve as pairs; from tissue; host or cells: rabbit pulmonary artery rings, endothelium intact
T1 sequence (G1SEI7 1-407): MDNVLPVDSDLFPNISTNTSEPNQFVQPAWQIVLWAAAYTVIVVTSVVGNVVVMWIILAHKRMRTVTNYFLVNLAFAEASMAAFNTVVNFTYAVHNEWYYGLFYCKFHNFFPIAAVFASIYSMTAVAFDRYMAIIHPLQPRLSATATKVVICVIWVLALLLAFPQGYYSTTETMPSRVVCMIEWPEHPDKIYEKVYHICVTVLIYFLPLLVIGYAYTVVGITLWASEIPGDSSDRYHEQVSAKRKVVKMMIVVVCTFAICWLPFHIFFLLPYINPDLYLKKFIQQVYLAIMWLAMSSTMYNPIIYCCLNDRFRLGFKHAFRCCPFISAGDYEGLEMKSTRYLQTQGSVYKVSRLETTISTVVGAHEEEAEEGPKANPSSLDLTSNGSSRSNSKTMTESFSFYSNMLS
Method: Rabbit Pulmonary Artery: NK1 In Vitro Functional Assay (Test C)
The ability of a Compound of the invention to antagonize the action of the agonist Ac-[Arg^6, Sar^9, Met(O2)^11]
Male New Zealand white rabbits are euthanized via i.v. injection into an ear vein with 60 mg/kg Nembutal (50 mg/mL). Preceding the Nembutal into the vein is Heparin (1000 units/mL) at 0.0025 ml/kg for anticoagulant purposes. The chest cavity is opened from the top of the rib cage to the sternum and the heart, lungs and part of the trachea are removed. The pulmonary arteries are isolated from the rest of the tissues and cut in half to serve as pairs.
The segments are suspended between stainless steel stirrups, so as not to remove any of the endothelium, and placed in water-jacketed (37° C.) tissue baths containing physiological salt solution of the following composition (mM): NaCl, 118.0; KCl, 4.7; CaCl2, 1.8; MgCl2, 0.54; NaH2PO4, 1.0; NaHCO3, 25.0; glucose, 11.0; indomethacin, 0.005(to inhibit cyclooxygenase); and dl-Propranolol, 0.00l(to block β receptors); gassed continuously with 95% O2-5% CO2. Responses are measured on a Grass polygraph via Grass FT-03 transducers and the electrical signals (data) acquired using a Mi^2 software/hardware system for subsequent conversion to measures of relaxation. […]

NK2 = target: T2, NK2 (Oryctolagus cuniculus, UniProt P79218); experiment: Rabbit Pulmonary Artery: NK2 In Vitro Functional Assay (Test D); type: cell-based; details: agonist BANK; -log molar KB; read-out: Rabbit Pulmonary Artery NK2 pKb (Test D) (converted)
T2 construct: The pulmonary arteries are isolated from the rest of the tissues, then rubbed over an intimal surface to remove the endothelium; from tissue; host or cells: rabbit pulmonary artery rings, endothelium removed
T2 sequence (P79218 1-384): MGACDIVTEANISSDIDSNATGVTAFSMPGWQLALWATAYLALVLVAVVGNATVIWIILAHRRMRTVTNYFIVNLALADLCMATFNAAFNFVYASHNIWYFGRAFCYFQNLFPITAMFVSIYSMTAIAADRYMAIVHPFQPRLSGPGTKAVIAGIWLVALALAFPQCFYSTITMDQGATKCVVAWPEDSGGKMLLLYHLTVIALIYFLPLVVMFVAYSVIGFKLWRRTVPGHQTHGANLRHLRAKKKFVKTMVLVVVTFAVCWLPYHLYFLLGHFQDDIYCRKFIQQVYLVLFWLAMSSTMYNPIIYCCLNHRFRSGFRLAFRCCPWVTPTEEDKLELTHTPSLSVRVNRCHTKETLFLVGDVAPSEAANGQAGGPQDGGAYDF
Method: NK2 In Vitro Functional Assay (Test D)
The ability of a Compound of the invention to antagonize the action of the agonist [β-ala^8] […] Male New Zealand white rabbits are euthanized via i.v. injection into an ear vein with 60 mg/kg Nembutal (50 mg/mL). Preceding the Nembutal into the vein is Heparin (1000 units/mL) at 0.0025 mL/kg for anticoagulant purposes. The chest cavity is opened from the top of the rib cage to the stemum and a small incision is made into the heart so that the left and right pulmonary arteries can be cannulated with polyethylene tubing (PE260 and PE190 respectively). […] Responses are measured on a Grass polygraph via Grass FT-03 transducers and the electrical signals (data) acquired using a Mi^2 software/hardware system for subsequent conversion to measures of contraction. […]
For non-competitive antagonists, the percent inhibition of contraction is determined at a given concentration of the antagonist Percent inhibition is determined when a tested Compound produces a statistically significant (p<0.05) reduction of the total contraction which is calculated using the total contraction as a percent of the control value. Potencies of competitive Compounds are determined by calculating the apparent dissociation constants (KB) for each concentration tested using the standard equation: […]

NK1 receptors = target: T3, NK1 receptors (Cavia porcellus, UniProt P30547); experiment: NK1 In Vivo Functional Assay (Test E), agonist-induced bronchoconstriction in anesthetized guinea pigs; parameters: species or system guinea pig; details: 120 minutes prior to agonist ASMSP, Dose Ratio of ED50 in presence/absence of antagonist
T3 construct: from tissue; host or cells: whole anesthetized guinea pig (airways)
T3 sequence (P30547 whole entry): as the sequence (G1SEI7 1-407) above, with S176G, E186S, G329A, L342F, E368D, A369P, N376T, M395V, F399S counted along it
Method: NK1 and NK2 In Vivo Functional Assay (Test E)
Exp. Ther., 1993, Vol 267(3), pp 1168-1175. The assay is carried out as follows.
Compounds are tested in anesthetized guinea pigs pretreated with i.v. indomethacin (10 mg/kg, 20 min.), propranolol (0.5 mg/kg, 15 min.), and thiorphan (10 mg/kg, 10 min).
Antagonists or vehicle are administered i.v. and orally, 30 and 120 minutes prior to increasing concentrations of agonist, respectively. The agonists used in these studies are ASMSP (Ac-[Arg^6,Sar^9,Met(O2)^11]-SP(6-11)) and BANK (β-ala-8 NKA4-10).
Administered i.v., ASMSP is selective for NK1 receptors, and BANK is selective for NK2 receptors. Maximum response is defined as zero conductance (GL, 1/Rp). ED50 values are calculated (the dose of agonist resulting in a reduction of GL to 50% of baseline), and converted to the negative logarithm (−logED50). The ED50 values, obtained in the presence (P) and absence (A) of antagonist, are used to calculate a Dose Ratio (P/A), an expression of potency. Data are expressed as mean±SEM and statistical differences were determined using ANOVA/Tukey-Kramer and Student's t-test , with p<0.05 considered statistically significant.

Row | inhibition at 0.01 µM (NK1; inhibition of relaxation at 10^−8 M) [%] | Kb (NK2) [nM] | Oral Activity (Test E) NK1 P/A (NK1 receptors) | Kb (NK1; -log molar KB, read-out: Rabbit Pulmonary Artery NK1 pKb (Test C) (converted)) [nM] | Compound
1 | 74 | 79.4 | 454 |  | COc1c(C#N)cc2c(c1C(=O)N(C)C[C@@H](CCN1CCC(c3ccccc3[S@+](C)[O-])CC1)c1ccc(Cl)c(Cl)c1)CCCC2 [Example 5, N-[(S)-2-(3,4-Dichlorophenyl)-4-[4-[(S)-2-methylsulfinylphenyl]-1-piperidinyl]butyl]-N-methyl-3-cyano-2-methoxy-5,6,7,8-tetrahydro-1-naphthamide]
2 |  | 25.1 | 147 | 5.01 | CN(C[C@@H](CCN1CCC(c2ccccc2[S@+](C)[O-])CC1)c1ccc(Cl)c(Cl)c1)C(=O)c1cc(C#N)cc2c1CCCC2 [Example 6, N-[2-(S)-(3,4-Dichlorophenyl)4-[-4-[(S)-2-(methylsulfinyl)phenyl]-1-piperidinyl]butyl]-N-methyl-3-cyano-5,6,7.8-tetrahydro-1-naphthamide]
